# Measured values: PubChem BioAssay AID248 (DTP/NCI, 2004)
# “And” between values parts separate entries of the source, which are not always exact repeats. Equal values may be shown once. Toxic doses and inconclusive results are not listed.
# System: L1210 leukemia ip in BDF1 mice, survival T/C
# Assay: NCI In Vivo Anticancer Drug Screen. Data for tumor model L1210 Leukemia (intraperitoneal) in B6D2F1 (BDF1) mice
# Settings: higher = longer survival
# How it was run: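 Value reflects the ratio of survival in compound-treated mice to survival in vehicle-treated controls, with both groups carrying the same transplanted tumor.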
smiles,measurement,setting,value
COc1cc(NS(C)(=O)=O)ccc1Nc1c2ccccc2nc2ccccc12,T/C,"endpoint: mean survival time, dose: 0.25 mg/kg/injection, schedule: Q03HX008 (ip), vehicle: other",120 % of control
same,T/C,"endpoint: mean survival time, dose: 0.38 mg/kg/injection, schedule: Q01DX009 (ip), vehicle: saline with Tween-80",185 % of control
same,T/C,"endpoint: mean survival time, dose: 0.75 mg/kg/injection, schedule: Q01DX009 (sc), vehicle: saline",118 % of control
same,T/C,"endpoint: mean survival time, dose: 1.0 mg/kg/injection, schedule: Q01DX009 (ip), vehicle: Klucel (hydroxypropylcellulose) (HPC)",160 % of control
same,T/C,"endpoint: mean survival time, dose: 1.25 mg/kg/injection, schedule: Q01DX009 (sc), vehicle: saline",112 % of control
same,T/C,"endpoint: mean survival time, dose: 1.35 mg/kg/injection, schedule: Q01DX009 (ip), vehicle: acetone",151 % of control
same,T/C,"endpoint: mean survival time, dose: 1.5 mg/kg/injection, schedule: Q01DX009 (sc), vehicle: saline",113 % of control
same,T/C,"endpoint: mean survival time, dose: 1.56 mg/kg/injection, schedule: Q01DX009 (ip), vehicle: saline with Tween-80",236 % of control
same,T/C,"endpoint: mean survival time, dose: 1.8 mg/kg/injection, schedule: Q01DX009 (ip), vehicle: water",150 % of control
same,T/C,"endpoint: mean survival time, dose: 1.9 mg/kg/injection, schedule: Q01DX001 (ip), vehicle: other",116 % of control
same,T/C,"endpoint: mean survival time, dose: 2.0 mg/kg/injection, schedule: Q03HX008 (ip), vehicle: other",203 % of control
same,T/C,"endpoint: mean survival time, dose: 2.05 mg/kg/injection, schedule: Q01DX009 (ip), vehicle: Klucel (hydroxypropylcellulose) (HPC)",155 % of control
same,T/C,"endpoint: mean survival time, dose: 2.05 mg/kg/injection, schedule: Q01DX009 (ip), vehicle: acetone",187 % of control
same,T/C,"endpoint: mean survival time, dose: 2.5 mg/kg/injection, schedule: Q01DX009 (sc), vehicle: saline",110 % of control and 121 % of control
same,T/C,"endpoint: mean survival time, dose: 3.0 mg/kg/injection, schedule: Q01DX009 (ip), vehicle: Klucel (hydroxypropylcellulose) (HPC)",176 % of control
same,T/C,"endpoint: mean survival time, dose: 3.0 mg/kg/injection, schedule: Q01DX009 (ip), vehicle: water",174 % of control
same,T/C,"endpoint: mean survival time, dose: 3.0 mg/kg/injection, schedule: Q01DX009 (sc), vehicle: saline",114 % of control
same,T/C,"endpoint: mean survival time, dose: 3.07 mg/kg/injection, schedule: Q01DX009 (ip), vehicle: Klucel (hydroxypropylcellulose) (HPC)",157 % of control
same,T/C,"endpoint: mean survival time, dose: 3.07 mg/kg/injection, schedule: Q01DX009 (ip), vehicle: acetone",188 % of control
same,T/C,"endpoint: mean survival time, dose: 3.12 mg/kg/injection, schedule: Q01DX009 (ip), vehicle: acetone",188 % of control
same,T/C,"endpoint: mean survival time, dose: 3.12 mg/kg/injection, schedule: Q01DX009 (ip), vehicle: saline with Tween-80",178 % of control and 216 % of control
same,T/C,"endpoint: mean survival time, dose: 3.75 mg/kg/injection, schedule: Q01DX001 (ip), vehicle: other",124 % of control
same,T/C,"endpoint: mean survival time, dose: 4.0 mg/kg/injection, schedule: Q01DX009 (ip), vehicle: Klucel (hydroxypropylcellulose) (HPC)",154 % of control
same,T/C,"endpoint: mean survival time, dose: 5.0 mg/kg/injection, schedule: Q01DX009 (ip), vehicle: saline with Tween-80",153 % of control
same,T/C,"endpoint: mean survival time, dose: 5.0 mg/kg/injection, schedule: Q01DX009 (ip), vehicle: water",113 % of control
same,T/C,"endpoint: mean survival time, dose: 5.0 mg/kg/injection, schedule: Q01DX009 (sc), vehicle: saline",123 % of control
same,T/C,"endpoint: mean survival time, dose: 6.0 mg/kg/injection, schedule: Q01DX009 (ip), vehicle: Klucel (hydroxypropylcellulose) (HPC)",150 % of control
same,T/C,"endpoint: mean survival time, dose: 6.25 mg/kg/injection, schedule: Q01DX009 (ip), vehicle: acetone",186 % of control
same,T/C,"endpoint: mean survival time, dose: 7.5 mg/kg/injection, schedule: Q04DX003 (ip), vehicle: other",156 % of control
same,T/C,"endpoint: mean survival time, dose: 8.0 mg/kg/injection, schedule: Q01DX009 (ip), vehicle: other",91 % of control
same,T/C,"endpoint: mean survival time, dose: 8.4 mg/kg/injection, schedule: Q01DX009 (ip), vehicle: water",89 % of control
same,T/C,"endpoint: mean survival time, dose: 10.0 mg/kg/injection, schedule: Q01DX009 (ip), vehicle: saline with Tween-80",207 % of control
same,T/C,"endpoint: mean survival time, dose: 12.5 mg/kg/injection, schedule: Q01DX009 (ip), vehicle: acetone",90 % of control
same,T/C,"endpoint: mean survival time, dose: 12.5 mg/kg/injection, schedule: Q01DX009 (ip), vehicle: saline with Tween-80",93 % of control
same,T/C,"endpoint: mean survival time, dose: 12.5 mg/kg/injection, schedule: Q01DX009 (ip), vehicle: saline",103 % of control
same,T/C,"endpoint: mean survival time, dose: 15.0 mg/kg/injection, schedule: Q04DX003 (ip), vehicle: other",294 % of control
same,T/C,"endpoint: mean survival time, dose: 18.75 mg/kg/injection, schedule: Q01DX001 (ip), vehicle: saline with Tween-80",160 % of control
same,T/C,"endpoint: mean survival time, dose: 25.0 mg/kg/injection, schedule: Q01DX001 (ip), vehicle: Klucel (hydroxypropylcellulose) (HPC)",152 % of control
same,T/C,"endpoint: mean survival time, dose: 30.0 mg/kg/injection, schedule: Q01DX001 (ip), vehicle: Klucel (hydroxypropylcellulose) (HPC)",254 % of control
same,T/C,"endpoint: mean survival time, dose: 30.0 mg/kg/injection, schedule: Q01DX001 (ip), vehicle: other",91 % of control
same,T/C,"endpoint: mean survival time, dose: 37.5 mg/kg/injection, schedule: Q01DX001 (ip), vehicle: saline with Tween-80",178 % of control and 270 % of control
same,T/C,"endpoint: mean survival time, dose: 45.0 mg/kg/injection, schedule: Q01DX001 (ip), vehicle: Klucel (hydroxypropylcellulose) (HPC)",160 % of control
same,T/C,"endpoint: mean survival time, dose: 50.0 mg/kg/injection, schedule: Q01DX001 (ip), vehicle: saline",158 % of control and 175 % of control
same,T/C,"endpoint: mean survival time, dose: 60.0 mg/kg/injection, schedule: Q01DX001 (ip), vehicle: Klucel (hydroxypropylcellulose) (HPC)",160 % of control and 255 % of control
same,T/C,"endpoint: mean survival time, dose: 75.0 mg/kg/injection, schedule: Q01DX001 (ip), vehicle: saline",202 % of control and 236 % of control
same,T/C,"endpoint: mean survival time, dose: 150.0 mg/kg/injection, schedule: Q01DX001 (ip), vehicle: saline with Tween-80",232 % of control
same,T/C,"endpoint: median survival time, dose: 1.0 mg/kg/injection, schedule: Q01DX009 (sc), vehicle: other",121 % of control
same,T/C,"endpoint: median survival time, dose: 2.0 mg/kg/injection, schedule: Q01DX009 (oral), vehicle: other",102 % of control
same,T/C,"endpoint: median survival time, dose: 4.0 mg/kg/injection, schedule: Q01DX009 (oral), vehicle: other",109 % of control
same,T/C,"endpoint: median survival time, dose: 8.0 mg/kg/injection, schedule: Q01DX009 (oral), vehicle: other",120 % of control
same,T/C,"endpoint: median survival time, dose: 8.0 mg/kg/injection, schedule: Q01DX009 (sc), vehicle: other",98 % of control
